Usually IC50 stands for the concentration needed to halve the response being measured.

For the assay, the target named is T1, human TSHR (Homo sapiens, UniProt P16473).
T1 construct: expressed in transfected cells
T1 sequence (P16473 21-764): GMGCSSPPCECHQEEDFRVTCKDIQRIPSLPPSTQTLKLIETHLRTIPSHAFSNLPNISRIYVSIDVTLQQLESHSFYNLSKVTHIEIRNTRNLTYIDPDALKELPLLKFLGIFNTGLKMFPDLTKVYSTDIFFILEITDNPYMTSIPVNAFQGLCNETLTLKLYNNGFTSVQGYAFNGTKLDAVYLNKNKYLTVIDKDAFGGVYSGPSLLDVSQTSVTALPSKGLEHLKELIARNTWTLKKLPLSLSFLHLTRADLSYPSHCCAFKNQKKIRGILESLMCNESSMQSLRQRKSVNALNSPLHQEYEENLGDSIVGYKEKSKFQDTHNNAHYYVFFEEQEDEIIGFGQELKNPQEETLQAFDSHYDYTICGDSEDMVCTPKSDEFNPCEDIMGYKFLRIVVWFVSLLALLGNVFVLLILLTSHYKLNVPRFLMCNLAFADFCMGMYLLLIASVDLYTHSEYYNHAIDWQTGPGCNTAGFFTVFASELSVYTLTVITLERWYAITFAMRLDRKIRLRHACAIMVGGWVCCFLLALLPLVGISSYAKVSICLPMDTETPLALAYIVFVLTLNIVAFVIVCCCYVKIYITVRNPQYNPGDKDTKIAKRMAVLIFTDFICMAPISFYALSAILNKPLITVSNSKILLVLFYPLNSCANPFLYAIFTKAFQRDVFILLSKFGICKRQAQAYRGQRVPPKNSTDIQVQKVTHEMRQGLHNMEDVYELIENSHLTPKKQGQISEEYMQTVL
Put plainly: Antagonist activity using TSH-induced cAMP generation in human TSHR-stably expressing CHO cells. It counts as cell-based. To be noted: human TSH 50 ng/mL. The method, then:
Measurement of antagonist activity using TSH-induced cAMP generation in human TSHR-stably expressing CHO cells as an indicator
The gene sequence (reference number: NM_000369.2) of a human TSHR was inserted into multiple cloning sites of pcDNA3.1 (+). Prepared plasmid vectors were introduced into CHO cells using a lipofection method, and human TSHR-stably expressing CHO cells were established. Obtained cells were seeded in a 96-well poly-D-lysine-coated plate at 5 × 10^4 cells/well and cultured in an F12 culture medium containing 10%FBS, 400 µg/mL of G418, 50 U/mL of penicillin, and 50 µg/mL of streptomycin under conditions of 37°C and 5% CO2 for one day. After the culture medium was removed, the cells were washed twice with 100 µL of an assay buffer solution (Hanks' Balanced Salt Solution containing 20 mM HEPES and 1 mM IBMX) per well. 30 µL of a test compound-containing assay buffer solution was added to the well and incubated at room temperature for 15 minutes. Next, 30 µL of an assay buffer solution containing human TSH (final concentration: 50 ng/mL, R&D Systems, Inc.) was added thereto and incubated at 37°C for one hour. A supernatant was removed, a Lysis and Detection Buffer 2(Cisbio) was added thereto, and the mixture was incubated at room temperature for one hour to prepare a cell lysate. According to the instruction manual of a cAMP Gs HiRange kit (Cisbio), the cell lysate, d2-labeled cAMP, and anti-cAMP Europium Cryptate labeled antibodies (Cisbio) were reacted together in a 384-well white microplate. Next, fluorescence intensity ratios (measurement wavelengths: 665 nm/620 nm) were measured using a multi-plate reader (PHERAstar FSX, BMG LABTECH, Japan). The fluorescence intensity ratio of each sample was converted to a cAMP content using a standard curve. The cAMP content was converted as a percentage of the control value to calculate a cAMP generation rate. The cAMP generation rates were plotted against the test compound concentrations using Prism (Graph Pad Software Inc.) to calculate IC50 values. The IC50's of the individual test compounds are shown in the above tables. In the tables, IC50 < 0.3 µM was denoted as A, and 0.3 µM ≤ IC50 < 30 µM was denoted as B. Cases where the IC50 values were not calculated for test compounds from which activity was recognized are denoted as C.
With `CC(C)(OC(=O)Nc1ccc(-c2cccnc2CNC(N)=O)c(Cc2ccccc2C#N)c1F)C(F)F` [Example A-37, 1,1-Difluoro-2-methylpropan-2-yl (3-(2-cyanobenzyl)-2-fluoro-4-(2-(ureidomethyl)pyridin-3-yl)phenyl)carbamate], the IC50 was in the range of 300 to 30000 nM. For `N#Cc1ccccc1Cc1c(-c2cccnc2CNC(N)=O)ccc(NC(=O)OC2CC3CCC2CC3)c1F` (centres unmarked) [Example A-38, Bicyclo[2.2.2]octan-2-yl (3-(2-cyanobenzyl)-2-fluoro-4-(2-(ureidomethyl)pyridin-3-yl)phenyl)carbamate], the IC50 lay in the range of 300 to 30000 nM. Under `CC(C)(C)OC(=O)Nc1ccc(-c2cccnc2CCC(N)=O)c(Cc2ccccc2C#N)c1F` [Example A-39, tert-Butyl (4-(2-(3-amino-3-oxopropyl)pyridin-3-yl)-3-(2-cyanobenzyl)-2-fluorophenyl)carbamate] stands less than 300 nM. Compound `CC(C)(C)OC(=O)Nc1ccc(-c2cccnc2CCC(N)=O)c(Cc2ccccc2S(C)(=O)=O)c1F` [Example A-40, tert-Butyl (4-(2-(3-amino-3-oxopropyl)pyridin-3-yl)-2-fluoro-3-(2-(methylsulfonyl)benzyl)phenyl)carbamate] gave an IC50 of 300 to 30000 nM. `CC(C)(C)OC(=O)Nc1ccc(-c2cccnc2CNC(N)=O)c(Oc2ccccc2)c1F` [Example B-1, tert-Butyl (2-fluoro-3-phenoxy-4-(2-(ureidomethyl)pyridin-3-yl)phenyl)carbamate] displayed an IC50 of less than 300 nM. The compound `CC(C)(C)OC(=O)Nc1ccc(-c2cccnc2CNC(N)=O)c(Oc2ccccc2F)c1F` [Example B-2, tert-Butyl (2-fluoro-3-(2-fluorophenoxy)-4-(2-(ureidomethyl)pyridin-3-yl)phenyl)carbamate] displayed an IC50 of less than 300 nM. Compound `C[C@H](OC(=O)Nc1ccc(-c2cccnc2CNC(N)=O)c(Oc2ccccc2F)c1F)C(F)(F)F` [Example B-3, (S)-1,1,1-Trifluoropropan-2-yl (2-fluoro-3-(2-fluorophenoxy)-4-(2-(ureidomethyl)pyridin-3-yl)phenyl)carbamate] came in with an IC50 of less than 300 nM. The compound `NC(=O)NCc1ncccc1-c1ccc(NC(=O)OCC2CC(F)(F)C2)c(F)c1Oc1ccccc1F` [Example B-4] came in with an IC50 of less than 300 nM. Regarding `NC(=O)NCc1ncccc1-c1ccc(NC(=O)OC2CC(F)(F)C2)c(F)c1Oc1ccccc1F` [Example B-5], the IC50 fell in the range of 300 to 30000 nM.

In the case of `CC(C)(C)OC(=O)Nc1ccc(-c2cccnc2CCC(N)=O)c(Oc2ccccc2F)c1F` [Example B-6, tert-Butyl (4-(2-(3-amino-3-oxopropyl)pyridin-3-yl)-2-fluoro-3-(2-fluorophenoxy)phenyl)carbamate], the IC50 is less than 300 nM. `CC(O)c1ncccc1-c1ccc(NC(=O)OC(C)(C)C)cc1Oc1ccccc1` (centres unmarked) [Example B-7, tert-Butyl (4-(2-(1-hydroxyethyl)pyridine-3-yl)-3-phenoxyphenyl)carbamate] had an IC50 greater than 30000 nM.

The compound `CC(C)(C)OC(=O)Nc1ccc(-c2ccnnc2CNC(N)=O)c(Cc2ccccc2F)c1F` [Example C-1, tert-Butyl (2-fluoro-3-(2-fluorobenzyl)-4-(3-(ureidomethyl)pyridazin-4-yl)phenyl)carbamate] yielded an IC50 of less than 300 nM. The compound `C[C@H](OC(=O)Nc1ccc(-c2ccnnc2CNC(N)=O)c(Cc2ccccc2F)c1F)C(F)(F)F` [Example C-2, (S)-1,1,1-Trifluoropropan-2-yl (2-fluoro-3-(2-fluorobenzyl)-4-(3-(ureidomethyl)pyridazin-4-yl)phenyl)carbamate] showed an IC50 of less than 300 nM.

Compound `CC1(OC(=O)Nc2ccc(-c3ccnnc3CNC(N)=O)c(Cc3ccccc3F)c2F)CC1` [Example C-3, 1-Methylcyclopropyl (2-fluoro-3-(2-fluorobenzyl)-4-(3-(ureidomethyl)pyridazin-4-yl)phenyl)carbamate] had an IC50 of 300 to 30000 nM. As for `CC(C)(C)OC(=O)Nc1ccc(-c2ccnnc2CCC(N)=O)c(Cc2ccccc2F)c1F` [Example C-4, tert-Butyl (4-(3-(3-amino-3-oxopropyl)pyridazin-4-yl)-2-fluoro-3-(2-fluorobenzyl)phenyl)carbamate], the IC50 was less than 300 nM.

`C[C@H](OC(=O)Nc1ccc(-c2ccnnc2CCC(N)=O)c(Cc2ccccc2F)c1F)C(F)(F)F` [Example C-5, (S)-1,1,1-Trifluoropropan-2-yl (4-(3-(3-amino-3-oxopropyl)pyridazin-4-yl)-2-fluoro-3-(2-fluorobenzyl)phenyl)carbamate] returned an IC50 of less than 300 nM. Consider `C[C@@H](OC(=O)Nc1ccc(-c2ccnnc2CCC(N)=O)c(Cc2ccccc2F)c1F)C1CC1` [Example C-6, (R)-1-Cyclopropylethyl (4-(3-(3-amino-3-oxopropyl)pyridazin-4-yl)-2-fluoro-3-(2-fluorobenzyl)phenyl)carbamate], for which the IC50 was less than 300 nM. With `NC(=O)CCc1nnccc1-c1ccc(NC(=O)O[C@H]2C[C@H](F)C2)c(F)c1Cc1ccccc1F` [Example C-7, trans-3-Fluorocyclobutyl (4-(3-(3-amino-3-oxopropyl)pyridazin-4-yl)-2-fluoro-3-(2-fluorobenzyl)phenyl)carbamate], the IC50 was 300 to 30000 nM.

For the compound `NC(=O)CCc1nnccc1-c1ccc(NC(=O)OC2CC(F)(F)C2)c(F)c1Cc1ccccc1F` [Example C-8], the IC50 was less than 300 nM. For the compound `Cc1nnccc1-c1ccc(NC(=O)OC(C)(C)C)c(F)c1Cc1ccccc1F` [Example C-9, tert-Butyl (2-fluoro-3-(2-fluorobenzyl)-4-(3-methylpyridazin-4-yl)phenyl)carbamate], the IC50 was in the range of 300 to 30000 nM.

Turning to `NC(=O)NCc1nnccc1-c1ccc(NC(=O)OC2(C3CC3)CC2)c(F)c1Cc1ccccc1F` [Example C-10], the IC50 fell in the range of 300 to 30000 nM. As for `CC(C)(C)OC(=O)Nc1ccc(-c2ccnnc2CNC(N)=O)c(Oc2ccccc2F)c1F` [Example D-1, tert-Butyl (2-fluoro-3-(2-fluorophenoxy)-4-(3-(ureidomethyl)pyridazin-4-yl)phenyl)carbamate], the IC50 was 300 to 30000 nM. Turning to `C[C@H](OC(=O)Nc1ccc(-c2ccnnc2CNC(N)=O)c(Oc2ccccc2F)c1F)C(F)(F)F` [Example D-2, (S)-1,1,1-Trifluoropropan-2-yl (2-fluoro-3-(2-fluorophenoxy)-4-(3-(ureidomethyl)pyridazin-4-yl)phenyl)carbamate], the IC50 was 300 to 30000 nM. Under `CC(C)(C)OC(=O)Nc1ccc(-c2ccnnc2CCC(N)=O)c(Oc2ccccc2F)c1F` [Example D-3, tert-Butyl (4-(3-(3-amino-3-oxopropyl)pyridazin-4-yl)-2-fluoro-3-(2-fluorophenoxy)phenyl)carbamate] stands less than 300 nM; under `C[C@H](OC(=O)Nc1ccc(-c2ccnnc2CCC(N)=O)c(Oc2ccccc2F)c1F)C(F)(F)F` [Example D-4, (S)-1,1,1-Trifluoropropan-2-yl (4-(3-(3-amino-3-oxopropyl)pyridazin-4-yl)-2-fluoro-3-(2-fluorophenoxy)phenyl)carbamate], less than 300 nM; under `Cc1ccccc1C(=O)c1c(-c2cccnc2CNC(N)=O)ccc(NC(=O)OC(C)(C)C)c1F` [Example E-1, tert-Butyl (2-fluoro-3-(2-methylbenzoyl)-4-(2-(ureidomethyl)pyridin-3-yl)phenyl)carbamate], less than 300 nM. `CC(C)(C)OC(=O)Nc1ccc(-c2cccnc2CNC(N)=O)c(C(=O)c2ccccc2C(F)(F)F)c1F` [Example E-2] came in with an IC50 of 300 to 30000 nM. Under `CC(C)(C)OC(=O)Nc1ccc(-c2cccnc2CCC(N)=O)c(C(=O)c2ccccc2F)c1F` [Example E-3, tert-Butyl (4-(2-(3-amino-3-oxopropyl)pyridin-3-yl)-2-fluoro-3-(2-fluorobenzoyl)phenyl)carbamate] stands less than 300 nM.

In turn, `C[C@H](OC(=O)Nc1ccc(-c2cccnc2CCC(N)=O)c(C(=O)c2ccccc2F)c1F)C(F)(F)F` [Example E-4, (S)-1,1,1-Trifluoropropan-2-yl (4-(2-(3-amino-3-oxopropyl)pyridin-3-yl)-2-fluoro-3-(2-fluorobenzoyl)phenyl)carbamate] yielded an IC50 of less than 300 nM. Compound `C[C@H](OC(=O)Nc1ccc(-c2cccnc2CCC(N)=O)c(C(=O)c2ccccc2F)c1F)C1CC1` [Example E-5, (S)-1-Cyclopropylethyl (4-(2-(3-amino-3-oxopropyl)pyridin-3-yl)-2-fluoro-3-(2-fluorobenzoyl)phenyl)carbamate] had an IC50 of less than 300 nM.

Compound `NC(=O)CCc1ncccc1-c1ccc(NC(=O)OC2CC(F)(F)C2)c(F)c1C(=O)c1ccccc1F` [Example E-6] came in with an IC50 of 300 to 30000 nM. Under `NC(=O)CCc1ncccc1-c1ccc(NC(=O)OCC2CC(F)(F)C2)c(F)c1C(=O)c1ccccc1F` [Example E-7] stands less than 300 nM.

Source of the values: patent EP4818158A1, “BIARYL COMPOUND” (Kissei Pharmaceutical Co., Ltd., priority 2023, dated 2025).
